From PubChem BioAssay AID743305 (Broad Institute, 2014) come the findings set out here.

Several values for one entry are separate records, joined by “and”; a condition that tells them apart may be missing. Equal entries are not always repeated. Activity calls are given as the source filed them. How the calls were made is not given here.

System in one test: not listed separately
Briefly: fungal lysis by compounds in C. neoformans – plate reader, dry powder, set 2, dose response (AID 743305). The note with it: Cryptococcus neoformans cell lysis, plate reader; at 35 µM (top of the series).
Regarding `COc1ccccc1OCCn1c(=S)[nH]c2ccccc21`, the activity change, negative = lysis is -5.77% (inactive).
Turning to `COc1ccc(OCCn2cnc3ccccc32)cc1`, the activity change, negative = lysis is -13.3% (inactive).
Consider `O=S(=O)(c1ccc(OCCn2cnc3ccccc32)cc1)N1CCOCC1`, for which the activity change, negative = lysis is -16.9% (inactive).
On the same count and under the same terms, then `CCc1nc2ccccc2n1CCOc1ccccc1`, with -12.5% (inactive).
As to `c1ccc(-c2ccc(OCCn3cnc4ccccc43)cc2)cc1`, the activity change, negative = lysis is -7.29% (inactive).
As for `OCc1nc2ccccc2n1CCOc1ccccc1`, the activity change, negative = lysis was -11.6% (inactive).
Consider `CS(=O)(=O)c1ccc(OCCn2cnc3ccccc32)cc1`, for which the activity change, negative = lysis was -6.3% (inactive).

The subject of the next test is Cryptococcus neoformans cell lysis, plate reader. Described as above.
Settings: not given
As to `Cc1cc2ncn(CCOc3ccccc3C)c2cc1C`, the AC50 is 8.4 µM.
The same measure, in the same setting: then `Cc1ccc(C(C)C)c(OCCn2c(=O)[nH]c3ccccc32)c1`, with > 70 µM (inactive); and `c1ccc(COc2ccc(OCCn3cnc4ccccc43)cc2)cc1`, with 24.4 µM; and `Cc1ccc(C(C)C)c(OCCn2c(CO)nc3ccccc32)c1`, with > 70 µM (inactive).
Regarding `CC(C)(C)c1ccc(OCCn2cnc3ccccc32)c(Cl)c1`, the AC50 was 10.1 µM.
For the molecule `c1ccc2c(c1)ncn2CCOc1ccc2c(c1)CCC2`, the concentration at half-maximal activity (AC50) was 3.3 µM.
Turning to `Clc1ccc(OCCn2cnc3ccccc32)cc1`, the half-maximal activity concentration (AC50) was 29 µM.
In the case of `Cc1ccc(OCCn2cnc3cc(C)c(C)cc32)cc1`, the AC50 is 5.54 µM.
For the molecule `S=c1[nH]c2cccc(Cl)c2n1CCOc1ccccc1`, the AC50 is 2.95 µM.
The same measure, in the same setting: the value for `Cc1ccc(C(C)C)c(OCCn2c(N)nc3ccccc32)c1` was 21.9 µM; that for `COCc1nc2ccccc2n1CCOc1ccc(C(C)(C)C)cc1` was 28.6 µM; that for `CCCCc1nc2ccccc2n1CCOc1ccccc1` was 24.3 µM.
Same read-out and setting: then `CC(C)(C)c1ccc(OCCn2cnc3ccccc32)cc1`, with 11 µM; and `Cc1ccc(OCCn2cnc3ccccc32)c(C)c1`, with 14.6 µM; and `CCCc1nc2ccccc2n1CCOc1ccccc1`, with 35.7 µM.
In the case of `Cc1ccc(C(C)C)c(OCCn2c(=S)[nH]c3ccccc32)c1`, the AC50 was 3.96 µM.
Still for that read-out and setting: the value for `CC(C)c1ccccc1OCCn1c(=S)[nH]c2ccccc21` was 4.7 µM.
For `Cc1cccc(OCCn2c(=S)[nH]c3ccc(C(F)(F)F)cc32)c1`, the AC50 is > 70 µM (inactive).
In the case of `Cc1cccc(OCCn2c(=S)[nH]c3c(F)cccc32)c1`, the AC50 was 8.18 µM and 7.2 µM.
Take `S=c1[nH]c2cc(Cl)ccc2n1CCOc1ccccc1`: the AC50 is 36 µM.
In the case of `Cc1ccc(C(C)C)c(OCCn2c(NC#N)nc3ccccc32)c1`, the AC50 was > 70 µM (inactive).
On the same count and under the same terms, the value for `Cc1cccc(OCCn2cnc3ccccc32)c1` was 34.1 µM; that for `CC(C)Oc1cccc(OCCn2cnc3ccccc32)c1` was 13.3 µM.
In the case of `NCC(=O)Nc1ccc(-n2nc(C(F)(F)F)cc2-c2ccc3c(ccc4ccccc43)c2)cc1`, the concentration at half-maximal activity (AC50) was 10.7 µM.
With `CC(C)Oc1ccc(OCCn2cnc3ccccc32)cc1`, the concentration at half-maximal activity (AC50) was 24.3 µM.
On the same count and under the same terms, the value for `Clc1ccc(OCCn2cnc3ccccc32)c(Cl)c1` was 11.8 µM; that for `Cc1cc2ncn(CCOc3ccccc3)c2cc1C` was 14.9 µM.
With `CC(C)Oc1ccc(OCCn2c(=S)[nH]c3ccccc32)cc1`, the AC50 was 12.1 µM.
Still for that read-out and setting: then `CCSc1nc2ccccc2n1CCOc1ccccc1`, with 35 µM.
Same read-out and setting: then `Cc1cccc(OCCn2c(=S)[nH]c3ccccc32)c1`, with 8.47 µM; and `CSc1nc2ccccc2n1CCOc1ccc(C)cc1`, with 17.7 µM.
For `Fc1ccc2c(c1)[nH]c(=S)n2CCOc1ccccc1`, the concentration at half-maximal activity (AC50) was 12.4 µM and 15.5 µM.
Turning to `Fc1ccc(OCCn2c(=S)[nH]c3ccccc32)cc1`, the AC50 was 36.6 µM.
Same read-out and setting: the value for `Cc1cc2ncn(CCOc3ccc4c(c3)CCC4)c2cc1C` was 3.63 µM; that for `Cc1cccc(OCCn2c(=S)[nH]c3cc(F)ccc32)c1` was 6.33 µM and 6 µM.
As for `Fc1cccc2c1[nH]c(=S)n2CCOc1ccccc1`, the AC50 was 13.9 µM.
In the case of `CC(C)c1ccccc1NCCn1c(=S)[nH]c2ccccc21`, the AC50 was > 70 µM (inactive).
On the same count and under the same terms, then `Cc1ccc(OCCn2cnc3ccccc32)c(C(C)C)c1`, with 32.8 µM; and `Cc1ccc2c(c1)[nH]c(=S)n2CCOc1ccccc1`, with 7.79 µM.
As for `FC(F)(F)c1cccc(OCCn2cnc3ccccc32)c1`, the AC50 was 29.7 µM.
Consider `CSc1nc2ccccc2n1CCOc1ccccc1`, for which the AC50 was 29.5 µM.
